# From patent publication US20030059511A1, “Sweetener compositions and uses thereof” (AJINOMOTO CO., INC., priority 1999, published 2003)
# Assays:
# Type in all cases: in vivo, human
# [1] = Equivalent concentration of bitter taste (Example 30), anhydrous caffeine; conditions: derivative 4 2.2 ppm; anhydrous caffeine 2000 ppm; no addition 0.205
# Experimental: (§1) With respect to the solution produced by adding derivative 1 (the product of the present invention), or adding nothing (no addition; the reference product) in the concentration shown in the following table 4 to the amino acid solution (2% solution of arginine by weight), the sensory evaluation was performed (using 10 panelists), and the equivalent concentration of bitter taste was determined. The results were shown in the table 4, wherein the equivalent concentration of bitter taste was shown in the concentration of aqueous solution of anhydrous caffeine which is a substance of bitter taste.
# (§2) With respect to the solution produced by adding derivative 4 (2.2 ppm) to each of the substances of Quinine sulfate (39 ppm), anhydrous caffeine (2000 ppm), ferrous citrate (50 ppm), calcium lactate (1500 ppm), and thiamine hydrochloride (5000 ppm) (the product of the present invention), or adding nothing thereto (no addition; the reference product) the reference product (no addition), the sensory evaluation was performed (using 10 panelists), and the equivalent concentration of bitter taste was determined in the same way as that described in Example 28, and shown in table 6.
# [2] = Equivalent concentration of bitter taste (Example 30), Quinine sulfate; conditions: derivative 4 2.2 ppm; Quinine sulfate 39 ppm; no addition 0.084
# Experimental: as §1, §2
# [3] = Equivalent concentration of bitter taste (Example 30), ferrous citrate; conditions: derivative 4 2.2 ppm; ferrous citrate 50 ppm; no addition 0.027
# Experimental: as §1, §2
# [4] = Equivalent concentration of bitter taste, sensory evaluation, mixed amino acids (Example 29); conditions: 2% mixed amino acids; addition: Derivative 2 10 ppm, Glycyrrhizin 250 ppm, Sucrose 50000 ppm; no addition 0.105
# Experimental: as §1
# With respect to the solution produced by adding derivative 2, Glycyrrhizin or sucrose (the product of the present invention), or adding nothing (no addition; the-reference product) to 2% (by weight) solution of the mixed amino acids (leucine:valine:isoleucine=1:0.5:0.5 by weight), the sensory evaluation was performed (using 10 panelists), and the equivalent concentration of bitter taste was determined in the same way as that described in Example 28, and shown in the table 5.
Structure (SMILES),"Equivalent concentration of bitter taste (Amount of anhydrous caffeine g/100 g), Caffeine (anhydrous) [1]","Equivalent concentration of bitter taste (Amount of anhydrous caffeine g/100 g), Quinine sulfate [2]","Equivalent concentration of bitter taste (Amount of anhydrous caffeine g/100 g), Ferrous citarte [3]",Equivalent concentration of bitter taste [4]
"COC(=O)[C@H](Cc1ccccc1)NC(=O)[C@H](CC(=O)O)NCCC(C)(C)c1ccc(O)c(C)c1 [Derivative 4, N-[N-[3-(3-methyl-4-hydroxyphenyl)-3-methylbutyl]-L-α-aspartyl]-L-phenylalanine 1-methyl ester]",0.045 g/100 g,0.025 g/100 g,0.020 g/100 g,
"COC(=O)[C@H](Cc1ccccc1)NC(=O)[C@H](CC(=O)O)NCCCc1ccc(OC)cc1 [Derivative 2, N-[N-[3-(4-methoxyphenyl)propyl]-L-α-aspartyl]-L-phenylalanine 1-methyl ester]",,,,0.051 g/100 g
